Read-outs that look alike come from different tables or passages of the source.
What was measured:
[1] = tested on: A2780 Human Ovarian Carcinoma Xenografts; settings: for MDS (n) / Complete Response / Partial Response / Stable Disease / Survivors / Toxic Deaths / Mean Score: i.v. qd x 1 (mg/kg: Taxol 24, 1351 75.3, 1401 107.6, 1418 107.6, Taxotere 70); for MDS (n): 2.0 g cut-off; for MDS (n) / Complete Response / Partial Response / Stable Disease / Survivors / Toxic Deaths: Day 60; for Mean Score: tumor score 1 to 10, group mean; for survival extension compared to Group 1 controls: i.v. qd x 1 (mg/kg: Taxol 24, 1418 107.6, Taxotere 70)
Protocol: Other antitumor compounds were similarly formulated. […] The dosing volume was 0.3 ml per 20 g mouse.
Female NCr-nude mice (implanted subcutaneously with 1 mm^3 A2780 ovarian carcinoma fragments in the flank) were sorted into treatment groups of five mice each, except for the Taxotere treatment group including six mice. […] Dosing was initiated on Day 1. The antitumor compounds were given i.v. at an estimated maximum tolerated dose (MTD) appropriate for each agent on a qd x 1 schedule (single administration of compound). […] Taxotere was given i.v. on a qd x 1 schedule at a dose of 70 mg/kg. The vehicle was administered i.v. to control mice in Group 1 on the qd x 1 schedule. Treatment groups are detailed in Table 7. The study was terminated on Day 60.
(§1) The results are summarized in Table 8 and include mean days of survival (MDS), number of toxic deaths, number of survivors, number of complete or partial responses, and number with stable disease. The mean days of survival is the number of days after which a neoplasm reached a size of 2.0 g and the animal was euthanized. A complete response is obtained if the tumor is not palpable at the end of the study. A partial response is obtained if the tumor shrinks to a size smaller than its size on Day 1 of the study.

[2] = tested on: HCT116 human colon carcinoma xenograft; settings: for long term survivors at the end of the experiment: HCT116, i.v. and oral groups together (out of thirty), Day 60; for Survivors: 10 mice/group, study end Day 60
Description: Six groups consisting of ten mice in each group were made up of female Nu/Nu mice (8-9 weeks of age; implanted with 1 mm^3 HCT116 human […] carcinoma fragments in the flank). Another six groups consisting of ten mice in each group were made up of male Nu/Nu mice (6-7 weeks of age; implanted with 1 mm^3 HCT116 human […] carcinoma fragments in the flank). […] The study was terminated on Day 60.
The results are summarized in Table 19 for the female mice and Table 20 for the male mice. Included are mean days of survival (MDS), number of toxic deaths, number of survivors, number of complete or partial responses, and number with stable disease. The mean days of survival is the number of days after which an […] neoplasm reached a size of 1.5 g and the animal was euthanized. A complete response is obtained if the tumor is not palpable at the end of the study. A partial response is obtained if the tumor shrinks to a size smaller than its size on Day 1 of the study. […]

[3] = tested on: SKMES Human Lung Carcinoma Xenograft
Protocol: Antitumor compounds were formulated for oral administration over a wide dose range in a study to investigate the efficacy of this compound against the SKMES human lung cancer xenograft. The antitumor compounds were prepared in the following vehicle: 5% ethanol, 5% Cremophor and 90% isotonic saline.
Female Nu/Nu mice (6-8 weeks of age; implanted with 1 mm^3 SKMES lung carcinoma fragments in the flank) were sorted into treatment groups of six mice each. SKMES size ranges and group mean SKMES size ranges were 126-448 mg and 238-241 mg, respectively. […] Treatments were administered as a single oral bolus on Day 1, and the study was terminated on Day 60.
(§2) The mean days of survival is the number of days after which a SKMES neoplasm reached a size of 2.0 g and the animal was euthanized. A complete response is obtained if the tumor is not palpable at the end of the study. A partial response is obtained if the tumor shrinks to a size smaller than its size on Day 1 of the study. […]

SK-MES carcinoma = test: In vivo evaluation against SK-MES human lung carcinoma xenograft, i.v. (Example 11); settings: i.v. split dose qd x 1 at MTD (Taxol 36 mg/kg, 1393 72.1 mg/kg), 6 mice/group, Day 60
Protocol: Two antitumor compounds were formulated for an i.v. dosing regime prepared in the following vehicle: 10% ethanol, 10% Cremophor and 80% isotonic saline. […] Other compounds were formulated similarly.
The MTDs for the antitumor compounds were calculated from earlier single dose data for mice receiving i.v. administration of these compounds. […] Vehicle control animals were dosed twice intravenously with half the total volume being given separated by one hour. The study was terminated at Day 60.
as §1, with “1” for “8”, “1.5” for “2.0”
A tumor scoring system was designed to provide a more quantitative ranking of efficacy (therapeutic potential) among the antitumor agents evaluated against the different human solid tumor xenografts. Each mouse in a study was given a score of from 1 to 10 at the end of the study. The scores can be summarized as follows:
The individual score for each mouse was averaged into a mean score for each treatment group. […]

[4] = tested on: MX-1 Human Breast Carcinoma Xenograft; settings: i.v. qd x 1 (Taxol 36 mg/kg split dose, 1393 72.6 mg/kg), 6 mice/group, Day 60
Protocol: Antitumor compounds were formulated for an i.v. dosing regime (single i.v. bolus on qd x 1 schedule) prepared in the following vehicle: 5% ethanol, 5% Cremophor and 90% isotonic saline. […] Other compounds were similarly formulated. […] The dosing volume was 0.3 ml per 20 g mouse.
All vehicle control animals in the split dosing regimes were dosed twice intravenously with half the total volume being given separated by one hour. The study was terminated on Day 60.
as §2, with “a” for “a SKMES”

[5] = SKMES, 1418 single oral bolus 90 mg/kg (Group 4), 6 mice, Day 60

| Compound | MDS (n) [1] | Complete Response [1] | Partial Response [1] | Stable Disease [1] | Survivors [1] | Toxic Deaths [1] | Mean Score [1] | survival extension compared to Group 1 controls [1] | further results |
| --- | --- | --- | --- | --- | --- | --- | --- | --- | --- |
| CCC(=O)O[C@H]1C[C@H]2OC[C@@]2(OC(C)=O)[C@H]2[C@H](OC(=O)c3ccccc3)[C@]3(O)C[C@H](OC(=O)[C@H](O)[C@@H](NC(=O)OC(C)(C)C)c4ccoc4)C(C)=C([C@@H](O)C(=O)[C@]12C)C3(C)C [Compound 1401] | 32.1 ± 3.9 (4) days | 0 | 0 | 1 | 1 | 0 | 3.4 ± 0.4 |  |  |
| CCC(=O)OC1CC2OCC2(OC(C)=O)C2C(OC(=O)c3ccccc3)C3(O)CC(OC(=O)C(O)C(NC(=O)OC(C)(C)C)c4ccco4)C(C)=C(C(O)C(=O)C12C)C3(C)C (stereo not drawn) [Compound 1393, 3'-Desphenyl-3'-(2-furyl)-7-propionyl taxotere] |  |  |  |  |  |  |  |  | long term survivors at the end of the experiment ([2]; female mice, 1393 104 mg/kg): twenty-eight; long term survivors at the end of the experiment ([2]; male mice, 1393 73 mg/kg): Twenty-nine; Survivors ([2]; female mice, 104 mg/kg i.v. in 5% ethanol and 95% Liposyn II (Group 4)): 10; Survivors ([2]; female mice, 104 mg/kg i.v. in 5% ethanol and 95% Liposyn III (Group 5)): 10; Survivors ([2]; female mice, 104 mg/kg oral in 5% ethanol, 5% Cremophor and 90% isotonic saline (Group 6)): 9; Survivors ([2]; male mice, 73 mg/kg i.v. in 5% ethanol and 95% Liposyn II (Group 4)): 10; Survivors ([2]; male mice, 73 mg/kg i.v. in 5% ethanol and 95% Liposyn III (Group 5)): 8; Survivors ([2]; male mice, 73 mg/kg oral in 5% ethanol, 5% Cremophor and 90% isotonic saline (Group 6)): 10; Survivors ([3]; 5.2 mg/kg single oral bolus Day 1, 6 mice/group, study end Day 60): 1; Survivors ([3]; 10.4 mg/kg single oral bolus Day 1, 6 mice/group, study end Day 60): 1; Survivors ([3]; 20.8 mg/kg single oral bolus Day 1, 6 mice/group, study end Day 60): 0; Survivors ([3]; 42 mg/kg single oral bolus Day 1, 6 mice/group, study end Day 60): 2; Survivors ([3]; 73 mg/kg single oral bolus Day 1, 6 mice/group, study end Day 60): 5; Survivors ([3]; 104 mg/kg single oral bolus Day 1, 6 mice/group, study end Day 60): 6; Complete Response (SK-MES carcinoma): six; Survivors [4]: 6 |
| CC(=O)O[C@@]12CO[C@@H]1C[C@H](O)[C@@]1(C)C(=O)[C@H](O)C3=C(C)[C@@H](OC(=O)[C@H](O)[C@@H](NC(=O)OC(C)(C)C)c4ccccc4)C[C@@](O)([C@@H](OC(=O)c4ccccc4)[C@H]21)C3(C)C [docetaxel, reference compound] | 27.4 ± 3.5 (5) days | 0 | 0 | 0 | 0 | 0 | 2.5 ± 0.3 | 134% |  |
| CCC(=O)O[C@H]1C[C@H]2OC[C@@]2(OC(C)=O)[C@H]2[C@H](OC(=O)c3ccccc3)[C@]3(O)C[C@H](OC(=O)[C@H](O)[C@@H](NC(=O)OC(C)(C)C)c4cccs4)C(C)=C([C@@H](O)C(=O)[C@]12C)C3(C)C [Compound 1418] | 32.0 ± 2.3 (5) days | 0 | 0 | 0 | 0 | 0 | 3 ± 0 | approximately 300% | Toxic Deaths ([3]; 90 mg/kg single oral bolus Day 1, 6 mice/group, study end Day 60): 0; total response rate ([3]; SKMES, 1418 single oral bolus 90 mg/kg (Group 4)): 100%; Complete Responses [3, 5]: four; Partial Responses [3, 5]: two; % Total Response ([3]; po, 90 mg/kg): 100%; Complete Responses ([3]; po, 90 mg/kg): 4; Partial Responses ([3]; po, 90 mg/kg): 2 |
| CCC(=O)O[C@H]1C[C@H]2OC[C@@]2(OC(C)=O)[C@H]2[C@H](OC(=O)c3ccccc3)[C@]3(O)C[C@H](OC(=O)[C@H](O)[C@H](C=C(C)C)NC(=O)OC(C)(C)C)C(C)=C([C@@H](O)C(=O)[C@]12C)C3(C)C [Compound 1351] | 23.0 ± 1.7 (4) days | 0 | 1 | 0 | 1 | 0 | 3.6 ± 1.1 |  | total response rate ([1]; 1351 75.3 mg/kg i.v. qd x 1): at least 20% |
